{"source": "ChEMBL document CHEMBL1152511", "about": "“Structural basis for alpha-conotoxin potency and selectivity” (Bioorg Med Chem, 2009)", "key": {"[1]": {"target": "Neuronal acetylcholine receptor; alpha3/beta2 (Homo sapiens, UniProt P17787+P32297)", "sequence (P17787 whole entry)": "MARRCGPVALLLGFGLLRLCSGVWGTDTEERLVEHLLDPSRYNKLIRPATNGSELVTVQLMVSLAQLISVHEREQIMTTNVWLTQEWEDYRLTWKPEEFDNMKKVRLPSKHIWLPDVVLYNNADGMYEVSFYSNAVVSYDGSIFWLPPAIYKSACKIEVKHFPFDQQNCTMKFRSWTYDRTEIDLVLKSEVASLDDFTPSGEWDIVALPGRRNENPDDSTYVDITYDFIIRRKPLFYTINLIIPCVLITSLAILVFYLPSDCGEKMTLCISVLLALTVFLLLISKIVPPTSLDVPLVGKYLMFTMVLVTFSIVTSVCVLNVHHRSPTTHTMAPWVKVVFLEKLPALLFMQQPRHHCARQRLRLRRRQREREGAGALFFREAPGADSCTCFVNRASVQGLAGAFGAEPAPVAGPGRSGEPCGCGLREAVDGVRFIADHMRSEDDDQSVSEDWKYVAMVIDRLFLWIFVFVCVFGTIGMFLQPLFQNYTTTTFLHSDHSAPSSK", "sequence (P32297 whole entry)": "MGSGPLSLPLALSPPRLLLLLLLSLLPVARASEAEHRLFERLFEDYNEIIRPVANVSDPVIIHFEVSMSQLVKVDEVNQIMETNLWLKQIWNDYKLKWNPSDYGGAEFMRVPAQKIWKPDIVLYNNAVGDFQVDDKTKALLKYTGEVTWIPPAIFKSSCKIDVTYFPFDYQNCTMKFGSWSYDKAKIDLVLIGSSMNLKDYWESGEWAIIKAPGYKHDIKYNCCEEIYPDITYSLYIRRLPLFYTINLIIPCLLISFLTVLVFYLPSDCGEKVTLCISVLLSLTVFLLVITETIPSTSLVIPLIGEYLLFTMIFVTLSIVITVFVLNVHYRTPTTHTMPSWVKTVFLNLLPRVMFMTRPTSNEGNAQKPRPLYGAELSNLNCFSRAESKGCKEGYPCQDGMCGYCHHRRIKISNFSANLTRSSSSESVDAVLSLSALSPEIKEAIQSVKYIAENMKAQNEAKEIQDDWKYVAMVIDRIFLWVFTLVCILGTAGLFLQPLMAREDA", "assay": "Inhibition of alpha3beta2 nAChR", "type": "protein-complex assay"}, "[2]": {"assay": "Selectivity for alpha3beta2 nAChR over alpha6beta2 nAChR"}, "[3]": {"target": "Neuronal acetylcholine receptor; alpha6/beta2 (Homo sapiens, UniProt P17787+Q15825)", "sequence (P17787 whole entry)": "as the sequence (P17787 whole entry) above", "sequence (Q15825 whole entry)": "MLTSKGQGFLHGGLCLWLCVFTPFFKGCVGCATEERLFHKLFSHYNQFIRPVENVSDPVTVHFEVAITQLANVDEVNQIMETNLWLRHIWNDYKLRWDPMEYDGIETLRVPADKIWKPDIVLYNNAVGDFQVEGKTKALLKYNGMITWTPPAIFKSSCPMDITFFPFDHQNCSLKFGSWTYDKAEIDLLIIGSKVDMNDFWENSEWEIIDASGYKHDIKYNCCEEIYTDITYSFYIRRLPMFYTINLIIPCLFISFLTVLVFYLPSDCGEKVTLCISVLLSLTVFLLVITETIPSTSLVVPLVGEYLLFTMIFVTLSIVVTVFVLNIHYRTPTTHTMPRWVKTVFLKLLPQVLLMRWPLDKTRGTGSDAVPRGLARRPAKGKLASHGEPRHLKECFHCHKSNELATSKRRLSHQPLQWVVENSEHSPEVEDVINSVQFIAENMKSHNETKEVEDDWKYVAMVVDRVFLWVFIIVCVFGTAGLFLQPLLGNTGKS", "assay": "Inhibition of alpha6beta2 nAChR", "type": "protein-complex assay"}, "[4]": {"assay": "Selectivity ratio of IC50 for alpha6beta2 nAChR to IC50 for alpha3beta2 nAChR"}}, "note": "Residues, ends and D or L forms follow the SMILES beside them."}
{"compound": "CC[C@H](C)[C@H](NC(=O)[C@H](CS)NC(=O)[C@@H]1CCCN1C(=O)[C@@H]1CCCN1C(=O)[C@H](CCCNC(=N)N)NC(=O)[C@H](CO)NC(=O)[C@H](CS)NC(=O)[C@H](CS)NC(=O)CN)C(=O)N[C@@H](C)C(=O)N[C@@H](CC(N)=O)C(=O)N[C@@H](CC(N)=O)C(=O)N1CCC[C@H]1C(=O)N[C@@H](CC(=O)O)C(=O)N[C@@H](CC(C)C)C(=O)N[C@@H](CS)C(=O)O", "values": [{"measurement": "IC50", "setting": "[1]", "value": 3.5, "unit": "nM"}]}
{"compound": "CC[C@H](C)[C@H](NC(=O)[C@H](Cc1cnc[nH]1)NC(=O)[C@@H]1CCCN1C(=O)[C@H](CC(N)=O)NC(=O)[C@H](CC(N)=O)NC(=O)[C@@H](NC(=O)[C@H](CC(N)=O)NC(=O)[C@H](CS)NC(=O)[C@H](C)NC(=O)[C@@H]1CCCN1C(=O)[C@H](Cc1cnc[nH]1)NC(=O)[C@H](CO)NC(=O)[C@H](CS)NC(=O)[C@H](CS)NC(=O)CN)C(C)C)C(=O)N[C@@H](CS)C(=O)NCC(=O)O", "note": "(H-GCCSHPACNVNNPHICG-OH)", "values": [{"measurement": "Selectivity ratio", "setting": "[2]", "value": 20}, {"measurement": "IC50", "setting": "[3]", "value": 201, "unit": "nM"}, {"measurement": "Ratio IC50", "setting": "[4]", "value": 0.0547}, {"measurement": "IC50", "setting": "[1]", "value": 11, "unit": "nM"}]}
{"compound": "CC(C)C[C@H](NC(=O)[C@@H](NC(=O)[C@H](C)NC(=O)[C@H](CS)NC(=O)[C@@H]1CCCN1C(=O)[C@@H]1CCCN1C(=O)[C@@H](NC(=O)[C@H](CO)NC(=O)[C@H](CS)NC(=O)[C@H](CS)NC(=O)CN)[C@@H](C)O)C(C)C)C(=O)N[C@@H](Cc1ccc(O)cc1)C(=O)N[C@@H](CS)C(=O)O", "note": "(H-GCCSTPPCAVLYC-OH)", "values": [{"measurement": "Selectivity ratio", "setting": "[2]", "value": 20}, {"measurement": "IC50", "setting": "[3]", "value": 0.26, "unit": "nM"}, {"measurement": "Ratio IC50", "setting": "[4]", "value": 22}, {"measurement": "IC50", "setting": "[1]", "value": 5.72, "unit": "nM"}]}
